Reference: patent US20210062367A1, “METHOD FOR PRODUCING LIBRARY FOR USE IN PREDICTION OF ACTION OF SUBSTANCE OF INTEREST ON LIVING BODY, AND METHOD FOR […] OF SUBSTANCE OF INTEREST ON LIVING BODY BASED ON CHANGE IN ACTION PARAMETER OR THE LIKE OF ZEBRAFISH” (SUNTORY HOLDINGS LIMITED, priority 2017, published 2021)

How the values were obtained:
[1] = system: zebrafish; experiment: Zebrafish behavioral parameter measurement (Danio Vision/Ethovision) with cluster analysis against library of Suvorexant and Imipramine; type: in vivo, MieKomachi 002 Line 8 dpf; details: 8beta 10 μM; estimated from similarity to Suvorexant
Protocol: 0.3×Danieau's solution (19.3 mM NaCl, 0.23 mM KCl, 0.23 mM MgSO4, 0.2 mM Ca(NO3)2, 1.7 mM HEPES, pH 7.2) is used as a water bath, and a 0.1% DMSO-containing water bath is used.
Zebrafish is prepared by growing it under the following conditions to 8 dpf.
Zebrafish: MieKomachi 002 Line 8 dpf
For each substance of known action, the reagent in which the substance was dissolved in the water bath and adjusted at a concentration of 1 μM was prepared.
(1) Add 1 ml of the water bath to each well of a 48-well plate. Transfer one zebrafish (8 dpf) per well thereto and adjust the temperature to 28° C. and maintain the temperature for from 30 minutes to 1 hour. […]
(§1) The repetition of light and dark periods with cycled of a light period for 3 hours (period L1)—a dark period for 10 hours (period D)—a light period for 11 hours (period L2) is performed and the behavior of zebrafish is recorded for 24 hours. […]
(§2) For each class of mobility states, the indicators DMF, IZF, DTZ, and TA are measured. […]
(§3) (2) Store the measured behavioral parameters as raw data of the following forms. • Type of reagent (any of the reagents prepared in [Preparation of reagents for production of library] or control) • Mobility state (95 to 65 (high speed), 65 to 35 (moderate speed), or 35 to 05 (low speed)) • Repetition of light and dark periods (L1, D, or L2) • Indicator (DMF, IZF, DTZ, or TA) […]

[2] = system: nfi13-6; experiment: Zebrafish oligo-DNA microarray gene expression with cluster analysis together with behavioral data (8beta vs library); type: in vivo, MieKomachi 002 Line 8 dpf; details: 8beta 10 μM; nfi13-6 clusters with H-, M-, L-DMT D, L1, L2
Protocol: (5) Subsequently, link the administration of the substance of known action and the change in expression levels of genes using microarray experiments.
(§4) The microarray experiments can be performed using Zebrafish oligo-DNA micro array Ver.3.0 manufactured by Agilent Technologies, Inc. according to protocol.
Based on array data obtained by this microarray experiment, the normalization of the data in the arrays is performed in the procedure described above using software in Gene Springs.
(3) Link the administration of 8beta and the change in expression levels of genes using microarray experiments.
The microarray experiments can be performed using zebrafish oligo-DNA micro array Ver.3.0 manufactured by Agilent Technologies, Inc. according to protocol.
(§5) Based on array data obtained by this microarray experiment, the normalization of the data in the arrays is performed in the procedure described above using software in Gene Springs and data among arrays are normalized by a method using the Z score.
Processing of statistically matching and analyzing the numerical data for Suvorexant and Imipramine recorded in the library and the numerical data with the administration of 8beta was conducted by the cluster analysis as follows. […]

[3] = system: per1b; experiment: Zebrafish oligo-DNA microarray gene expression with cluster analysis together with behavioral data (EGCG vs library); type: in vivo, Zebrafish (Danio rerio), AB Line 6 dpf; details: EGCG 0.003 mg/mL; per1b clusters with L-DMT D, L-DMT L1, L-DMT L2
Protocol: This can be done by citing array data of Diazepam (GSE23157) and Haloperidol (GSE89780) from a public DB (Geo Datasets).
Based on these array data, the normalization of the data in the arrays is performed in the procedure described above using software in Gene Springs and data among arrays are normalized by a method using the Z score.
(3) Link the administration of EGCG and the change in expression levels of genes using microarray experiments.
as §4, §5
Processing of statistically matching and analyzing the numerical data for Diazepam and Haloperidol recorded in the library and the numerical data with the administration of EGCG was conducted by the cluster analysis as follows.
In the result of cluster analysis including data of change in expression levels of genes, the action and mechanism of EGCG can be estimated based on the Gene Ontrogy (GO) information of the gene expression data by paying attention on data having high correlation between EGCG and Diazepam (data clustered in close relation). […]

[4] = system: zebrafish; experiment: Zebrafish behavioral parameter measurement (Danio Vision/Ethovision) with cluster analysis against library of Diazepam and Haloperidol; type: in vivo, Zebrafish (Danio rerio), AB Line 6 dpf; details: EGCG 0.003 mg/mL; estimated from similarity to Diazepam
Protocol: 0.3×Danieau's solution (19.3 mM NaCl, 0.23 mM KCl, 0.23 mM MgSO4, 0.2 mM Ca(NO3)2, 1.7 mM HEPES, pH 7.2) is used as a water bath.
Zebrafish is prepared by growing it under the following conditions to 6 dpf.
For each substance of known action, the reagent in which the substance was dissolved in the water bath and adjusted at a concentration of 10 μM was prepared.
(1) Add 1 ml of the water bath to each well of a 48-well plate. Transfer one zebrafish (6 dpf) per well thereto and adjust the temperature to 28° C. and maintain the temperature for from 30 minutes to 1 hour.
(2) Remove the liquid in the 48-well plate with a pipette and then add 1 ml/well of any of the reagents. […]
as §1, §2, §3

[5] = system: zebrafish; details: modafinil given to zebrafish in bath; compared with ethanol; cited from earlier work

SMILES: C=C1C(=O)OC2C=C(C)CCC=C(C)CC(OC(=O)/C(C)=C/CO)C12 (stereo not drawn) [8beta, 8beta-(4′-hydroxytigloyloxy)costunolide]
- action estimated from closely related drug in cluster analysis [1]: sleep action
- gene expression data (nfi13-6), cluster analysis of change in expression levels [2]: change with correlation between 8beta and Suvorexant

SMILES: O=C(O[C@@H]1Cc2c(O)cc(O)cc2O[C@@H]1c1cc(O)c(O)c(O)c1)c1cc(O)c(O)c(O)c1 [EGCG, epigallocatechin gallate]
- gene expression data (per1b), cluster analysis of change in expression levels [3]: change with correlation between EGCG and Diazepam
- action estimated from closely related drug in cluster analysis [4]: sedative action

SMILES: NC(=O)C[S+]([O-])C(c1ccccc1)c1ccccc1 (centres unmarked) [modafinil]
- action suggested by behavioral analysis of zebrafish [5]: antianxiety action
